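Dose response: 5 concentrations. Exposure: 48 h. Format: 96-well plates. Endpoint: linear interpolation; highest concentration if not reached. Abbreviation: GI50, concentration required for 50% inhibition of growth.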 The source made the active and inactive calls. No stated cut-off is given here; in the data, active = GI50 up to about 1.1 µM and inactive = higher.

Experimental findings from ChEMBL document CHEMBL1201862, “PubChem BioAssay data set” (2004) are described below.

Among the test systems are IGROV-1; MDA-MB-435; 786-0; A549; CAKI-1; Malme-3M; HT-29; HOP-62; TK-10; MDA-N; M14; NCI-H460; MCF7; Hs-578T; PC-3; HCC 2998; SF-295; A498; SK-MEL-2.
Common to all, as to experiment: DTP human tumour cell line panel, 48 h

As to `C(/C=N/N=C1NCCCN1)=N\N=C1NCCCN1`, the GI50 with IGROV-1, in the test on MDA-MB-435, with 786-0, in the test with A549, in the test with CAKI-1 and with Malme-3M was > 100 µM (inactive) in each case. In addition, the GI50 in the test with HT-29 was > 100 µM (inactive); in the test on HOP-62 it was > 100 µM (inactive); in the test with TK-10, > 10 µM (inactive); in the test on MDA-N, > 100 µM (inactive); with M14 it was > 100 µM (inactive); in the test on NCI-H460 it was > 100 µM (inactive). Moreover, the GI50 in the test on MCF7 is > 100 µM (inactive); in the test on Hs-578T it was > 100 µM (inactive); in the test on PC-3, > 100 µM (inactive); with HCC 2998, > 100 µM (inactive); in the test on SF-295, > 10 µM (inactive).

On to `COC(=O)c1cc(C)ccc1/C=C1\Cc2cccc(C)c2C1=O`, for which the GI50 was 76.9 µM (inactive) in the test on IGROV-1; 50.4 µM (inactive) with 786-0; 28.2 µM (inactive) in the test with A549; 49.2 µM (inactive) in the test with CAKI-1; 20.5 µM (inactive) in the test with Malme-3M; 12.8 µM (inactive) in the test with HT-29. In addition, the GI50 is 31.2 µM (inactive) in the test with HOP-62; > 100 µM (inactive) in the test on TK-10; 11.1 µM (inactive) in the test on MDA-N; > 100 µM (inactive) in the test with M14; > 100 µM (inactive) in the test with NCI-H460; 46.3 µM (inactive) with A498. Further, the GI50 with MCF7 was 30.5 µM (inactive); in the test on Hs-578T, 57.5 µM (inactive); in the test on PC-3, 8.04 µM (inactive); in the test on HCC 2998 it was 47.5 µM (inactive); with SF-295, 30.9 µM (inactive).

On to `NC(=O)C(c1ccccc1)N1OC2C(=O)N(c3ccccc3)C(=O)C2C1c1c2ccccc2c(Cl)c2ccccc12` (configuration not stated), for which the GI50 with IGROV-1, in the test on MDA-MB-435, in the test with 786-0, in the test with A549, in the test on CAKI-1 and with Malme-3M was > 100 µM (inactive) in each case. Besides, the GI50 with HT-29, with HOP-62, with MDA-N, with M14, with MCF7 and in the test with Hs-578T was > 100 µM (inactive) in each case. Moreover, the GI50 in the test on SK-MEL-2, in the test on PC-3 and in the test on SF-295 was > 100 µM (inactive) throughout.

On to `CC1(C)C=C(/C=N/Nc2ccc(Br)cc2)C(C#N)=C(O)C1(C#N)C#N`, for which the GI50 in the test on IGROV-1 is 81.8 µM (inactive); in the test on MDA-MB-435, 39.7 µM (inactive); in the test with 786-0, 47.2 µM (inactive); with A549, 39.2 µM (inactive); with CAKI-1 it was 36.1 µM (inactive); in the test on Malme-3M, 89.7 µM (inactive). For the same compound, the GI50 in the test with HT-29 was 40.8 µM (inactive); with HOP-62, 63 µM (inactive); in the test on TK-10, 83.6 µM (inactive); in the test with MDA-N, 42.2 µM (inactive); with M14, 26.6 µM (inactive); in the test on NCI-H460, 33.1 µM (inactive). Moreover, the GI50 with MCF7 is 26.5 µM (inactive); in the test with Hs-578T, 63.8 µM (inactive); with PC-3 it was 21.2 µM (inactive); in the test with HCC 2998 it was 24.5 µM (inactive); with SF-295 it was > 100 µM (inactive).

As to `Cc1cc2ccc(N)nc2nc1O`, the GI50 with IGROV-1, in the test with MDA-MB-435, in the test with 786-0, in the test with A549, with CAKI-1 and in the test with Malme-3M was > 100 µM (inactive) throughout. The GI50 in the test on HT-29, with TK-10, in the test on MDA-N, in the test with M14, with NCI-H460 and with MCF7 was > 100 µM (inactive) in each case. Moreover, the GI50 in the test on Hs-578T, in the test with SK-MEL-2, in the test with PC-3 and in the test with SF-295 was > 100 µM (inactive) each time.

With `O=CN(CCN1CCCC1)C1CCc2cc(Cl)c(Cl)cc2C1` (configuration not stated), the GI50 with IGROV-1 is 22.1 µM (inactive); in the test with MDA-MB-435, 15 µM (inactive); in the test with 786-0, 7.55 µM (inactive); with A549 it was 7.71 µM (inactive); in the test on CAKI-1, 18.9 µM (inactive); with Malme-3M it was 13.6 µM (inactive). Also, the GI50 in the test on HT-29 is 5.75 µM (inactive); in the test with HOP-62, 11.3 µM (inactive); with TK-10 it was 16.3 µM (inactive); in the test with MDA-N, 10 µM (inactive); with M14, 15.9 µM (inactive); in the test with NCI-H460 it was 0.196 µM (active). The GI50 in the test with Hs-578T was 13.6 µM (inactive); in the test on PC-3, 11.4 µM (inactive); in the test with HCC 2998 it was 17.5 µM (inactive); in the test with SF-295, 0.166 µM (active).

Consider `COc1cccc(C(=O)Oc2ccc(OS(=O)(=O)c3ccc(C)cc3)cc2)c1C#N`, for which the GI50 in the test with IGROV-1 was 29 µM (inactive); in the test on MDA-MB-435 it was 55.5 µM (inactive); with 786-0, 86.9 µM (inactive); in the test with A549 it was 23.6 µM (inactive); in the test with CAKI-1, > 100 µM (inactive); in the test with Malme-3M, 32.4 µM (inactive). Besides, the GI50 is 78.5 µM (inactive) with HT-29; > 100 µM (inactive) with HOP-62; 78.7 µM (inactive) in the test on TK-10; 68.2 µM (inactive) with MDA-N; 47.9 µM (inactive) in the test with M14; 49.5 µM (inactive) in the test with NCI-H460. Also, the GI50 with MCF7 is 49.7 µM (inactive); in the test on Hs-578T it was 86.7 µM (inactive); with SK-MEL-2 it was 66.5 µM (inactive); with PC-3, 43.3 µM (inactive); in the test with SF-295, 55.6 µM (inactive).

For the compound `O=C1/C(=C/c2ccccc2)CCCc2ccccc21`, the GI50 was 19.6 µM (inactive) in the test on IGROV-1; 18.3 µM (inactive) in the test with MDA-MB-435; 16.4 µM (inactive) with 786-0; 22.9 µM (inactive) with A549; 22.3 µM (inactive) in the test on CAKI-1; 20.8 µM (inactive) in the test on Malme-3M. For the same compound, the GI50 in the test on HT-29 was 17.7 µM (inactive); with HOP-62, 19.2 µM (inactive); in the test with TK-10 it was 19.8 µM (inactive); with MDA-N it was 19 µM (inactive); with M14, 20.1 µM (inactive); with NCI-H460, 16 µM (inactive). In addition, the GI50 was 17.4 µM (inactive) with MCF7; 21.9 µM (inactive) in the test on Hs-578T; 16.2 µM (inactive) in the test with SK-MEL-2; 18.1 µM (inactive) in the test on PC-3; 19 µM (inactive) with SF-295.
